What was measured:
Type in all cases: cell-based
KRAS G12V = target: T1, KRAS G12V (Homo sapiens, UniProt P01116, G12V); assay: KRAS G12V HiBit assay; conditions: SW620-KRAS (G12V)-HiBit-KI cells, compound treatment for 24 hours
T1 construct: SW620-KRAS (G12V)-HiBit-KI cell (Pharmaron); host or cells: SW620-KRAS (G12V)-HiBit-KI cells (HiBiT knock-in at the endogenous KRAS locus)
In short: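 HiBiT-tagged KRAS G12V cells treated 24 h with compound in a 3-fold, 10-point series (0.3 mM DMSO stock); lytic HiBiT reagent with LgBiT added after 15 min room-temperature equilibration. Degradation calculated against 0.1% DMSO high control.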

KRAS = target: T2, KRAS (Homo sapiens, UniProt P01116); assay: KRASamp MSD assay; conditions: KE39 (KRAS amplified) cells, treated with test compounds for 24 hr, MSD readout of KRAS degradation
T2 construct: endogenous in cells; host or cells: KE39 (KRAS amplified) cells
Experimental: KE39 (KRAS amplified) cells were cultured in RPMI 1640 medium (Gibco, 11875093), seeded into 96 well plate and treated with test compounds for 24 hr. The cells were washed with PBS and lysed in plate for 1 hr at 4° C. with agitation in RIPA buffer (Cat No. BP-115D) supplemented with protease and phosphatase inhibitor cocktail. The lysates were loaded into MSD plate coated with KRAS capture antibody (LSBio, C175665, 1:1000) for 1 h at RT with agitation. The plate was then washed three times with TBST and incubated with KRAS detection antibody (Abcam, Ab275876. 1:2000) for 1 h at RT. After washing three times with TBST, the plate was incubated with secondary detection antibody GAR (1:500) for 1 hr at RT followed with 3×TBST washing. 2×MSD reading buffer was added into individual wells and the plate was finally read by MSD reader (MSD, SQ 120 MM). The recombinant WT KRAS protein was used for standard curve generation and protein quantification. The degradation activity was calculated using the following formula: […]
DC50 was calculated by fitting the curve using GraphPad Prism v8.0.2 (analysis 263): […]

KRAS G12D = target: T3, KRAS G12D (Homo sapiens, UniProt P01116, G12D); assay: KRAS G12D HiBit assay; conditions: AsPc-1-KRAS (G12D)-HiBit-KI cell, compound treatment for 24 hours; for DC50: absolute DC50
T3 construct: AsPc-1-KRAS (G12D)-HiBit-KI cell (Pharmaron); host or cells: AsPc-1-KRAS (G12D)-HiBit-KI cells (HiBiT knock-in at the endogenous KRAS locus)
In short: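 Cells were treated for 24 h with compounds in a 3-fold, 10-point dilution series from a 0.3 mM DMSO stock, then equilibrated 15 min at room temperature. KRAS G12D HiBiT levels were read by luminescence after lytic Nano-Glo HiBiT reagent with LgBiT; inhibition calculated relative to 0.1% DMSO high control.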

[1] = numeric bounds given in place of class symbols

T2 sequence (P01116 1-188 isoform P01116-2): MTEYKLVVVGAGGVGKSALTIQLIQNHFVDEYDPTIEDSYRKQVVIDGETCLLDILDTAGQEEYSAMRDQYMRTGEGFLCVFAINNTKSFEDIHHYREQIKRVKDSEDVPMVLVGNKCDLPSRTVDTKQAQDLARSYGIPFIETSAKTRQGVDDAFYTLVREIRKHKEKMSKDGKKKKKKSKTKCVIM
T3 sequence (P01116 1-188 isoform P01116-2 G12D): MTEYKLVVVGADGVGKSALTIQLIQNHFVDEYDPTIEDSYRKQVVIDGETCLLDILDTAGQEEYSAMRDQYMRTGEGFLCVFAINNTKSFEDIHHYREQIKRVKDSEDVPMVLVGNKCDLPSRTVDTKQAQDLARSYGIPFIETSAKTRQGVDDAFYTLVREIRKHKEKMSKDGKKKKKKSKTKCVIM
T1 sequence (P01116 1-188 isoform P01116-2 G12V): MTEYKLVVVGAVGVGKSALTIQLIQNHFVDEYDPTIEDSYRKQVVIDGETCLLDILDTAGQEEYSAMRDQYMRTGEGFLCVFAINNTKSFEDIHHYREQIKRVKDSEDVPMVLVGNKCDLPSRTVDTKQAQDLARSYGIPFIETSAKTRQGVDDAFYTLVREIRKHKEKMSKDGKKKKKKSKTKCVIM

Q: For `CCc1c(F)ccc2cc(O)cc(-c3ncc4c(N5CCC[C@@](C)(O)C5)nc(OC[C@@]56CCCN5[C@H](COC(=O)N5CCN(CC7CCN(c8ccc9c(c8)n(C)c(=O)n9C8CCC(=O)NC8=O)CC7)CC5)CC6)nc4c3F)c12` (stereo partly drawn) [Compound 97, [(3S,8S)-8-[[7-(8-ethyl-7-fluoro-3-hydroxy-1-naphthyl)-8-fluoro-4-[(3R)-3-hydro-xy-3-methyl-1-piperidyl]pyrido[4,3-d]pyrimidin-2-yl]oxymethyl]-1,2,3,5,6,7-hexahydropyrrolizin-3-yl]methyl 4-[[1-[1-(2,6-dioxo-3-piperidyl)-3-methyl-2-oxo-benzimidazol-5-yl]-4-piperidyl]methyl]piperazine-1-carboxylate], which DC50 (KRAS G12V; class symbols) is on record?
A: < 10 nM

Q: What about the DC50 (KRAS) of the same molecule?
A: < 1 nM

Q: And the DC50 (KRAS G12D; class symbols)?
A: < 100 nM

Q: What about the Dmax (KRAS G12D; class symbols) of the same molecule?
A: > 50%

Q: `CCc1c(F)ccc2cc(O)cc(-c3ncc4c(N5CCCC(F)(F)C5)nc(OC[C@@]56CCCN5[C@H](COC(=O)N5CC7(CC(N8CCC(c9ccc%10c(c9)n(C)c(=O)n%10C9CCC(=O)NC9=O)CC8)C7)C5)CC6)nc4c3F)c12` (stereo partly drawn) [Compound 469, ((3S,7aS)-7a-(((4-(3,3-difluoropiperidin-1-yl)-7-(8-ethyl-7-fluoro-3-hydroxynaphthalen-1-yl)-8-fluoropyrido[4,3-d]pyrimidin-2-yl)oxy)methyl)hexahydro-1H-pyrrolizin-3-yl)methyl 6-(4-(1-(2,6-dioxopiperidin-3-yl)-3-methyl-2-oxo-2,3-dihydro-1H-benzo[d]imidazol-5-yl)piperidin-1-yl)-2-azaspiro[3.3]heptane-2-carboxylate] was tested. Which DC50 (KRAS G12V; class symbols) did it give?
A: < 10 nM

Q: And the DC50 (KRAS)?
A: < 1 nM

Q: And the DC50 (KRAS G12D; class symbols)?
A: < 100 nM

Q: What does the source list for `C#Cc1c(F)ccc2cc(O)cc(-c3ncc4c(N5CCC[C@@](C)(O)C5)nc(OC[C@@]56CCCN5[C@H](COC(=O)N5CC(N7CCC(N8CCC(c9ccc%10c(c9)n(C)c(=O)n%10C9CCC(=O)NC9=O)CC8)CC7)C5)CC6)nc4c3F)c12` (stereo partly drawn) [Compound 322, ((3S,7aS)-7a-(((7-(8-ethynyl-7-fluoro-3-hydroxynaphthalen-1-yl)-8-fluoro-4-((R)-3-hydroxy-3-methylpiperidin-1-yl)pyrido[4,3-d]pyrimidin-2-yl)oxy)methyl)hexahydro-1H-pyrrolizin-3-yl)methyl 3-(4-(1-(2,6-dioxopiperidin-3-yl)-3-methyl-2-oxo-2,3-dihydro-1H-benzo[d]imidazol-5-yl)-[1,4′-bipiperidin]-1′-yl)azetidine-1-carboxylate]?
A: DC50 (KRAS G12V; class symbols): > 100 nM; DC50 (KRAS): ≥ 10 nM; DC50 (KRAS G12D; [1]): > 100 nM

Q: `CCc1c(F)ccc2cc(O)cc(-c3ncc4c(N5CCC[C@@](C)(O)C5)nc(OC[C@@]56CCCN5[C@H](COC(=O)N5CCC7(CC5)CC(CN5CCC(c8ccc9c(c8)n(C)c(=O)n9C8CCC(=O)NC8=O)CC5)C7)CC6)nc4c3F)c12` (stereo partly drawn) [Compound 417, ((3S,7aS)-7a-(((7-(8-ethyl-7-fluoro-3-hydroxynaphthalen-1-yl)-8-fluoro-4-((R)-3-hydroxy-3-methylpiperidin-1-yl)pyrido[4,3-d]pyrimidin-2-yl)oxy)methyl)hexahydro-1H-pyrrolizin-3-yl)methyl 2-((4-(1-(2,6-dioxopiperidin-3-yl)-3-methyl-2-oxo-2,3-dihydro-1H-benzo[d]imidazol-5-yl)piperidin-1-yl)methyl)-7-azaspiro[3.5]nonane-7-carboxylate] was tested. Which DC50 (KRAS G12V; class symbols) did it give?
A: < 10 nM

Q: And the DC50 (KRAS)?
A: < 1 nM

Q: What about the DC50 (KRAS G12D; class symbols) of the same molecule?
A: < 100 nM

Q: Which results are given for `Cn1c(=O)n(C2CCC(=O)NC2=O)c2ccc(C3CCN(C4CC5(CCN(C(=O)OC[C@@H]6CC[C@]7(COc8nc(N9CCC[C@@](C)(O)C9)c9cnc(-c%10cc(O)cc%11ccc(F)cc%10%11)c(F)c9n8)CCCN67)CC5)C4)CC3)cc21` (stereo partly drawn) [Compound 438, ((3S,7aS)-7a-(((8-fluoro-7-(7-fluoro-3-hydroxynaphthalen-1-yl)-4-((R)-3-hydroxy-3-methylpiperidin-1-yl)pyrido[4,3-d]pyrimidin-2-yl)oxy)methyl)hexahydro-1H-pyrrolizin-3-yl)methyl 2-(4-(1-(2,6-dioxopiperidin-3-yl)-3-methyl-2-oxo-2,3-dihydro-1H-benzo[d]imidazol-5-yl)piperidin-1-yl)-7-azaspiro[3.5]nonane-7-carboxylate]?
A: DC50 (KRAS G12V; class symbols): < 10 nM; DC50 (KRAS): < 1 nM; DC50 (KRAS G12D; class symbols): < 100 nM

Q: Which results are given for `Cn1c(=O)n(C2CCC(=O)NC2=O)c2ccc(C3CCN(CC4CCN(C(=O)OC[C@@H]5CC[C@]6(COc7nc(N8CCC[C@@](C)(O)C8)c8cnc(-c9cc(O)cc%10ccc(F)c(F)c9%10)c(F)c8n7)CCCN56)CC4)CC3)cc21` (stereo partly drawn) [Compound 410, ((3S,7aS)-7a-(((7-(7,8-difluoro-3-hydroxynaphthalen-1-yl)-8-fluoro-4-((R)-3-hydroxy-3-methylpiperidin-1-yl)pyrido[4,3-d]pyrimidin-2-yl)oxy)methyl)hexahydro-1H-pyrrolizin-3-yl)methyl 4-((4-(1-(2,6-dioxopiperidin-3-yl)-3-methyl-2-oxo-2,3-dihydro-1H-benzo[d]imidazol-5-yl)piperidin-1-yl)methyl)piperidine-1-carboxylate]?
A: DC50 (KRAS G12V; class symbols): < 10 nM; DC50 (KRAS): < 1 nM; DC50 (KRAS G12D; class symbols): < 100 nM

Q: How did the DC50 (KRAS G12V; class symbols) turn out when `CCc1c(F)ccc2cc(O)cc(-c3ncc4c(N5CCC[C@@](C)(O)C5)nc(OC[C@@]56CCCN5[C@H](COC(=O)N5CCC(CN7CCC(c8ccc9c(c8)n(C)c(=O)n9C8CCC(=O)NC8=O)C7)CC5)CC6)nc4c3F)c12` (stereo partly drawn) [Compound 435, ((3S,7aS)-7a-(((7-(8-ethyl-7-fluoro-3-hydroxynaphthalen-1-yl)-8-fluoro-4-((R)-3-hydroxy-3-methylpiperidin-1-yl)pyrido[4,3-d]pyrimidin-2-yl)oxy)methyl)hexahydro-1H-pyrrolizin-3-yl)methyl 4-((3-(1-(2,6-dioxopiperidin-3-yl)-3-methyl-2-oxo-2,3-dihydro-1H-benzo[d]imidazol-5-yl)pyrrolidin-1-yl)methyl)piperidine-1-carboxylate] was run?
A: 10 to 100 nM

Q: What about the DC50 (KRAS) of the same molecule?
A: 1 to 10 nM

Q: And the DC50 (KRAS G12D; class symbols)?
A: < 100 nM

Q: Which results are given for `CCc1c(F)ccc2cc(O)cc(-c3ncc4c(N5CCC[C@@](C)(O)C5)nc(OC[C@@]56CCCN5[C@@H](COC(=O)N5CCC(CN7CCC(c8ccc9c(c8)n(C)c(=O)n9C8CCC(=O)NC8=O)CC7)CC5)CC6)nc4c3F)c12` (stereo partly drawn) [Compound 389, ((3R,7aS)-7a-(((7-(8-ethyl-7-fluoro-3-hydroxynaphthalen-1-yl)-8-fluoro-4-((R)-3-hydroxy-3-methylpiperidin-1-yl)pyrido[4,3-d]pyrimidin-2-yl)oxy)methyl)hexahydro-1H-pyrrolizin-3-yl)methyl 4-((4-(1-(2,6-dioxopiperidin-3-yl)-3-methyl-2-oxo-2,3-dihydro-1H-benzo[d]imidazol-5-yl)piperidin-1-yl)methyl)piperidine-1-carboxylate]?
A: DC50 (KRAS G12V; numeric bounds): > 70.5 nM; DC50 (KRAS): 1 to 10 nM; DC50 (KRAS G12D; class symbols): < 100 nM

Q: How did the DC50 (KRAS G12V; class symbols) turn out when `C#Cc1c(F)ccc2cc(O)cc(-c3ncc4c(N5CCC[C@@](C)(O)C5)nc(OC[C@@]56CCCN5[C@H](COC(=O)N5CCC7(CC5)CC(CN5CCC(c8ccc9c(c8)n(C)c(=O)n9C8CCC(=O)NC8=O)CC5)C7)CC6)nc4c3F)c12` (stereo partly drawn) [Compound 323, ((3S,7aS)-7a-(((7-(8-ethynyl-7-fluoro-3-hydroxynaphthalen-1-yl)-8-fluoro-4-((R)-3-hydroxy-3-methylpiperidin-1-yl)pyrido[4,3-d]pyrimidin-2-yl)oxy)methyl)hexahydro-1H-pyrrolizin-3-yl)methyl 2-((4-(1-(2,6-dioxopiperidin-3-yl)-3-methyl-2-oxo-2,3-dihydro-1H-benzo[d]imidazol-5-yl)piperidin-1-yl)methyl)-7-azaspiro[3.5]nonane-7-carboxylate] was run?
A: < 10 nM

Q: And the DC50 (KRAS)?
A: 1 to 10 nM

Q: And the DC50 (KRAS G12D; class symbols)?
A: < 100 nM

Q: What does the source list for `CCc1c(F)ccc2cc(O)cc(-c3ncc4c(N5CCC[C@@](C)(O)C5)nc(OC[C@]56CCCN5[C@H](COC(=O)NC5CCN(c7ccc8c(c7)n(C)c(=O)n8C7CCC(=O)NC7=O)CC5)CC6)nc4c3F)c12` (stereo partly drawn) [Compound 308, ((3S,7aR)-7a-(((7-(8-ethyl-7-fluoro-3-hydroxynaphthalen-1-yl)-8-fluoro-4-((R)-3-hydroxy-3-methylpiperidin-1-yl)pyrido[4,3-d]pyrimidin-2-yl)oxy)methyl)hexahydro-1H-pyrrolizin-3-yl)methyl (1-(1-(2,6-dioxopiperidin-3-yl)-3-methyl-2-oxo-2,3-dihydro-1H-benzo[d]imidazol-5-yl)piperidin-4-yl)carbamate]?
A: DC50 (KRAS G12V; class symbols): 10 to 100 nM; DC50 (KRAS): < 1 nM; DC50 (KRAS G12D; [1]): > 100 nM
